Measured values: patent US7652029B2, “Therapeutic compound and treatments” (priority 2004, dated 2010)

How the values were obtained:
K-562 = assay: NCI multiple cell line test (SRB); assay type: cell-based, human; details: K-562 (Leukemia), 48 h
EKVX = assay: NCI multiple cell line test (SRB); assay type: cell-based, human; details: EKVX (Non-Small Cell Lung Cancer), 48 h
NCI-H460 = assay: NCI multiple cell line test (SRB); assay type: cell-based, human
NCI-H522 = assay: NCI multiple cell line test (SRB); assay type: cell-based, human; details: NCI-H522 (Non-Small Cell Lung Cancer), 48 h
KM12 = assay: NCI multiple cell line test (SRB); assay type: cell-based, human; details: KM12 (Colon Cancer), 48 h
SK-MEL-5 = assay: NCI multiple cell line test (SRB); assay type: cell-based, human; details: SK-MEL-5 (Melanoma), 48 h
OVCAR-8 = assay: NCI multiple cell line test (SRB); assay type: cell-based, human; details: OVCAR-8 (Ovarian Cancer), 48 h
786-0 = assay: NCI multiple cell line test (SRB); assay type: cell-based, human; details: 786-0 (Renal Cancer), 48 h
UO-31 = assay: NCI multiple cell line test (SRB); assay type: cell-based, human; details: UO-31 (Renal Cancer), 48 h
HS 578T = assay: NCI multiple cell line test (SRB); assay type: cell-based, human; details: HS 578T (Breast Cancer), 48 h
MDA-MB-435 = assay: NCI multiple cell line test (SRB); assay type: cell-based, human; details: MDA-MB-435 (Breast Cancer), 48 h
Lewis murine lung cells = assay: Growth response, MTT dye conversion assay; assay type: cell-based; details: FIG. 9; mouse lung cell line
ACHN cells = assay: Growth response, MTT dye conversion assay; assay type: cell-based, human; details: low doses (FIG. 14 as printed)
[1] = Homo sapiens, read-out: −log10GI50 (converted)
[2] = NCI-H460 (Non-Small Cell Lung Cancer), 48 h

SMILES: COC(=O)C1=C(C(=O)OC)SC2(S1)C(C(=O)OC)=C(C(=O)OC)SC1=C2c2cccc(OC)c2N(C(=O)CN2C(=O)CCC2=O)C1(C)C [MT477]
- IC50 (K-562; Homo sapiens, K562, read-out: −log10GI50 (converted)): 1620 nM
- −log10LC50 (K-562): * (effect not reached at maximum dose of 0.05 millimolar)
- −log10TGI (K-562): 4.99 molar
- −log10LC50 (EKVX): 4.34 molar
- −log10TGI (EKVX): 4.7 molar
- IC50 (EKVX; [1]): 8510 nM
- IC50 (NCI-H460; Homo sapiens, NCI-H460 (Non-Small Cell Lung Cancer), 48 h, read-out: −log10GI50 (converted)): 1740 nM
- GI50 (NCI-H460; Homo sapiens, NCI-H460, MT477 ACTUAL): 1740 nM
- Activity against lung cancer NCI-H460 (NCI-H460; MT477 ACTUAL): Yes
- −log10LC50 (NCI-H460; [2]): * (effect not reached at maximum dose of 0.05 millimolar)
- −log10TGI (NCI-H460; [2]): * (effect not reached at maximum dose of 0.05 millimolar)
- IC50 (NCI-H522; [1]): 9330 nM
- −log10LC50 (NCI-H522): * (effect not reached at maximum dose of 0.05 millimolar)
- −log10TGI (NCI-H522): 4.31 molar
- IC50 (KM12; [1]): 2290 nM
- −log10LC50 (KM12): * (effect not reached at maximum dose of 0.05 millimolar)
- −log10TGI (KM12): * (effect not reached at maximum dose of 0.05 millimolar)
- IC50 (SK-MEL-5; [1]): 6170 nM
- −log10LC50 (SK-MEL-5): * (effect not reached at maximum dose of 0.05 millimolar)
- −log10TGI (SK-MEL-5): 4.51 molar
- IC50 (OVCAR-8; [1]): 6920 nM
- −log10LC50 (OVCAR-8): 4.37 molar
- −log10TGI (OVCAR-8): 4.77 molar
- −log10LC50 (786-0): 5.47 molar
- −log10TGI (786-0): 5.76 molar
- IC50 (786-0; [1]): 871 nM
- IC50 (UO-31; [1]): 3390 nM
- −log10LC50 (UO-31): * (effect not reached at maximum dose of 0.05 millimolar)
- −log10TGI (UO-31): 4.81 molar
- −log10LC50 (HS 578T): * (effect not reached at maximum dose of 0.05 millimolar)
- −log10TGI (HS 578T): 4.68 molar
- IC50 (HS 578T; [1]): 6610 nM
- IC50 (MDA-MB-435; [1]): 1700 nM
- −log10LC50 (MDA-MB-435): 4.58 molar
- −log10TGI (MDA-MB-435): 5.27 molar
- growth response (Lewis murine lung cells): effective in human and mouse cell lung lines
- growth response at low concentrations (ACHN cells): effective even at very low doses, including micromolar dosages
